The record followed here is the supplement of paper PMC8967900.

Molecules are shown by their SMILES.
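Note: ALL cell lines in 384-well plates, five doses spanning 10,000-fold, each plate scaled between vehicle and 100 µmol/L benzalkonium chloride controls, sDSS an adapted area-under-curve metric.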

The test system of one test is PF-382. The experiment in a line: selective drug sensitivity score (sDSS, relative to normal bone marrow) (sDSS (score)); higher = more potent and effective on the cell line relative to normal bone marrow cells. The conditions noted are these: 72 h.
`Cc1cc(C(C)Nc2ccccc2)c2nc(N3CCOCC3)cc(=O)n2c1` (stereo not given) [TGX-221] (top concentration 10000 nM): the “selective drug sensitivity score” value is -0.84.
In the case of `Cc1nc(-c2cn3c(n2)-c2ccc(-c4cnn(C(C)(C)C(N)=O)c4)cc2OCC3)n(C(C)C)n1` [Taselisib] (top concentration 1000 nM), the “selective drug sensitivity score” value was 3.
For `O=C(Nc1cccc(Nc2ncc(Br)c(NCCc3cnc[nH]3)n2)c1)N1CCCC1` [BX-912] (top concentration 10000 nM), the “selective drug sensitivity score” value was found to be 5.06.
Regarding `NS(=O)(=O)OC[C@@H]1C[C@@H](n2ccc3c(N[C@H]4CCc5ccccc54)ncnc32)C[C@@H]1O` [Pevonedistat] (top concentration 10000 nM), the “selective drug sensitivity score” value is 13.2.
Take `N#Cc1ccc(COC[C@H]2O[C@@H](n3c(NCc4ccc(Cl)c(Cl)c4)nc4c(N)ncnc43)[C@H](O)[C@@H]2O)cc1` (top concentration 10000 nM): the “selective drug sensitivity score” value came out at 8.82.
For `C=C1C[C@@H]2[C@H](CC[C@]3(C)C(=O)CC[C@@H]23)[C@@]2(C)C=CC(=O)C=C12` [Exemestane] (top concentration 10000 nM), the “selective drug sensitivity score” value was -0.4.
For `NCC(=O)Nc1ccc(-n2nc(C(F)(F)F)cc2-c2ccc3c(ccc4ccccc43)c2)cc1` (top concentration 25000 nM), the “selective drug sensitivity score” value is 8.

The test system of the next test is MHH-CALL-2. Described as above. Conditions: 72 h.
In the case of `Cc1cc(C(C)Nc2ccccc2)c2nc(N3CCOCC3)cc(=O)n2c1` (stereo not given) [TGX-221] (top concentration 10000 nM), the “selective drug sensitivity score” value amounted to 5.16.
With `Cc1nc(-c2cn3c(n2)-c2ccc(-c4cnn(C(C)(C)C(N)=O)c4)cc2OCC3)n(C(C)C)n1` [Taselisib] (top concentration 1000 nM), the “selective drug sensitivity score” value was 6.9.
Regarding `O=C(Nc1cccc(Nc2ncc(Br)c(NCCc3cnc[nH]3)n2)c1)N1CCCC1` [BX-912] (top concentration 10000 nM), the “selective drug sensitivity score” value was found to be 2.86.
For the compound `NS(=O)(=O)OC[C@@H]1C[C@@H](n2ccc3c(N[C@H]4CCc5ccccc54)ncnc32)C[C@@H]1O` [Pevonedistat] (top concentration 10000 nM), the “selective drug sensitivity score” value was found to be 10.
`N#Cc1ccc(COC[C@H]2O[C@@H](n3c(NCc4ccc(Cl)c(Cl)c4)nc4c(N)ncnc43)[C@H](O)[C@@H]2O)cc1` (top concentration 10000 nM): the “selective drug sensitivity score” value is 0.52.
On to `C=C1C[C@@H]2[C@H](CC[C@]3(C)C(=O)CC[C@@H]23)[C@@]2(C)C=CC(=O)C=C12` [Exemestane] (top concentration 10000 nM), for which the “selective drug sensitivity score” value is -0.9.
Take `NCC(=O)Nc1ccc(-n2nc(C(F)(F)F)cc2-c2ccc3c(ccc4ccccc43)c2)cc1` (top concentration 25000 nM): the “selective drug sensitivity score” value came out at 7.1.

Another test relates to COG-LL-319h. The test is described as above. The conditions noted are these: 72 h.
Regarding `Cc1cc(C(C)Nc2ccccc2)c2nc(N3CCOCC3)cc(=O)n2c1` (stereo not given) [TGX-221] (top concentration 10000 nM), the “selective drug sensitivity score” value was -1.64.
For the compound `Cc1nc(-c2cn3c(n2)-c2ccc(-c4cnn(C(C)(C)C(N)=O)c4)cc2OCC3)n(C(C)C)n1` [Taselisib] (top concentration 1000 nM), the “selective drug sensitivity score” value was determined as 4.1.
In the case of `O=C(Nc1cccc(Nc2ncc(Br)c(NCCc3cnc[nH]3)n2)c1)N1CCCC1` [BX-912] (top concentration 10000 nM), the “selective drug sensitivity score” value was found to be 12.7.
The same measure, in the same setting: for `NS(=O)(=O)OC[C@@H]1C[C@@H](n2ccc3c(N[C@H]4CCc5ccccc54)ncnc32)C[C@@H]1O` [Pevonedistat] (top concentration 10000 nM) the value was 12.2; for `N#Cc1ccc(COC[C@H]2O[C@@H](n3c(NCc4ccc(Cl)c(Cl)c4)nc4c(N)ncnc43)[C@H](O)[C@@H]2O)cc1` (top concentration 10000 nM), 7.52; for `C=C1C[C@@H]2[C@H](CC[C@]3(C)C(=O)CC[C@@H]23)[C@@]2(C)C=CC(=O)C=C12` [Exemestane] (top concentration 10000 nM), 10.
Consider `NCC(=O)Nc1ccc(-n2nc(C(F)(F)F)cc2-c2ccc3c(ccc4ccccc43)c2)cc1` (top concentration 25000 nM), for which the “selective drug sensitivity score” value stood at 8.

In the next test the test system is MOLT-4. Described as above. The conditions noted are these: 72 h.
As to `Cc1cc(C(C)Nc2ccccc2)c2nc(N3CCOCC3)cc(=O)n2c1` (stereo not given) [TGX-221] (top concentration 10000 nM), the “selective drug sensitivity score” value came to 0.66.
Still for that read-out and setting: for `Cc1nc(-c2cn3c(n2)-c2ccc(-c4cnn(C(C)(C)C(N)=O)c4)cc2OCC3)n(C(C)C)n1` [Taselisib] (top concentration 1000 nM) the value was 3.
Consider `O=C(Nc1cccc(Nc2ncc(Br)c(NCCc3cnc[nH]3)n2)c1)N1CCCC1` [BX-912] (top concentration 10000 nM), for which the “selective drug sensitivity score” value was 6.56.
Same read-out and setting: with `NS(=O)(=O)OC[C@@H]1C[C@@H](n2ccc3c(N[C@H]4CCc5ccccc54)ncnc32)C[C@@H]1O` [Pevonedistat] (top concentration 10000 nM) the figure was 14; with `N#Cc1ccc(COC[C@H]2O[C@@H](n3c(NCc4ccc(Cl)c(Cl)c4)nc4c(N)ncnc43)[C@H](O)[C@@H]2O)cc1` (top concentration 10000 nM), 5.32.
With `C=C1C[C@@H]2[C@H](CC[C@]3(C)C(=O)CC[C@@H]23)[C@@]2(C)C=CC(=O)C=C12` [Exemestane] (top concentration 10000 nM), the “selective drug sensitivity score” value is -1.9.
Turning to `NCC(=O)Nc1ccc(-n2nc(C(F)(F)F)cc2-c2ccc3c(ccc4ccccc43)c2)cc1` (top concentration 25000 nM), the “selective drug sensitivity score” value amounted to 14.7.

In another test the test system is HPB-ALL. Described as above. The conditions noted are these: 72 h.
`Cc1cc(C(C)Nc2ccccc2)c2nc(N3CCOCC3)cc(=O)n2c1` (stereo not given) [TGX-221] (top concentration 10000 nM): the “selective drug sensitivity score” value is -1.64.
For `Cc1nc(-c2cn3c(n2)-c2ccc(-c4cnn(C(C)(C)C(N)=O)c4)cc2OCC3)n(C(C)C)n1` [Taselisib] (top concentration 1000 nM), the “selective drug sensitivity score” value is -0.4.
For the compound `O=C(Nc1cccc(Nc2ncc(Br)c(NCCc3cnc[nH]3)n2)c1)N1CCCC1` [BX-912] (top concentration 10000 nM), the “selective drug sensitivity score” value is -0.34.
For `NS(=O)(=O)OC[C@@H]1C[C@@H](n2ccc3c(N[C@H]4CCc5ccccc54)ncnc32)C[C@@H]1O` [Pevonedistat] (top concentration 10000 nM), the “selective drug sensitivity score” value came out at 5.7.
For the compound `N#Cc1ccc(COC[C@H]2O[C@@H](n3c(NCc4ccc(Cl)c(Cl)c4)nc4c(N)ncnc43)[C@H](O)[C@@H]2O)cc1` (top concentration 10000 nM), the “selective drug sensitivity score” value came to 4.32.
Still for that read-out and setting: for `C=C1C[C@@H]2[C@H](CC[C@]3(C)C(=O)CC[C@@H]23)[C@@]2(C)C=CC(=O)C=C12` [Exemestane] (top concentration 10000 nM) the value was 5.5; for `NCC(=O)Nc1ccc(-n2nc(C(F)(F)F)cc2-c2ccc3c(ccc4ccccc43)c2)cc1` (top concentration 25000 nM), 7.6.
